From ChEMBL document CHEMBL1155809, “Design, synthesis, and antihepatocellular carcinoma activity of nitric oxide releasing derivatives of oleanolic acid” (J Med Chem, 2008)
Calls of active or inactive are those of the source. No cut-off for these calls is given here.

Legend:
MCF7 [1] = assay: Cytotoxicity against human MCF7 cells assessed as cell death by lactate dehydrogenase release assay; format: functional, cell-based
HeLa [2] = assay: Cytotoxicity against human HeLa cells assessed as cell death by lactate dehydrogenase release assay; format: functional, cell-based
HEK293 [3] = assay: Cytotoxicity against human HEK293 cells assessed as levels of nitric oxide production at 100 uM after 30 to 300 mins by colorimetric assay; format: functional, cell-based
MCF7 [4] = assay: Cytotoxicity against human MCF7 cells assessed as levels of nitric oxide production at 100 uM after 30 to 300 mins by colorimetric assay; format: functional, cell-based
HepG2 [5] = assay: Cytotoxicity against human HepG2 cells assessed as levels of nitric oxide production at 100 uM after 30 to 300 mins by colorimetric assay; format: functional, cell-based
[6] = Cytotoxicity against human Hep3B cells assessed as cell death at 0.001 uM after 24 hrs by lactate dehydrogenase release assay; format: functional, Hep 3B2
HepG2 [7] = assay: Cytotoxicity against human HepG2 cells assessed as cell death at 0.001 uM after 24 hrs by lactate dehydrogenase release assay; format: functional
Hep 3B2 = assay: Cytotoxicity against human Hep3B cells assessed as levels of nitric oxide production at 100 uM after 30 to 300 mins by colorimetric assay; format: functional, cell-based
[8] = Cytotoxicity against human Hep3B cells assessed as cell death at 0.01 uM after 24 hrs by lactate dehydrogenase release assay; format: functional, Hep 3B2
PC-3 [9] = assay: Cytotoxicity against human PC3 cells assessed as cell death by lactate dehydrogenase release assay; format: functional, cell-based
[10] = Cytotoxicity against human Hep3B cells assessed as cell death at 0.1 uM after 24 hrs by lactate dehydrogenase release assay; format: functional, Hep 3B2
PC-3 [11] = assay: Cytotoxicity against human PC3 cells assessed as levels of nitric oxide production at 100 uM after 30 to 300 mins by colorimetric assay; format: functional, cell-based
HeLa [12] = assay: Cytotoxicity against human HeLa cells assessed as levels of nitric oxide production at 100 uM after 30 to 300 mins by colorimetric assay; format: functional, cell-based
HEK293 [13] = assay: Cytotoxicity against HEK293 cells assessed as cell death by lactate dehydrogenase release assay; format: functional, cell-based; conditions: Homo sapiens
HepG2 [14] = assay: Cytotoxicity against human HepG2 cells assessed as cell death at 0.1 uM after 24 hrs by lactate dehydrogenase release assay; format: functional
HepG2 [15] = assay: Cytotoxicity against human HepG2 cells assessed as cell death at 0.01 uM after 24 hrs by lactate dehydrogenase release assay; format: functional
[16] = Cytotoxicity against human Hep3B cells assessed as cell death at 1 uM after 24 hrs by lactate dehydrogenase release assay; format: functional, Hep 3B2
HepG2 [17] = assay: Cytotoxicity against human HepG2 cells assessed as cell death at 1 uM after 24 hrs by lactate dehydrogenase release assay; format: functional

In the case of `CC1(C)CC[C@]2(C(=O)O)CC[C@]3(C)C(=CC[C@@H]4[C@@]5(C)CC[C@H](OC(=O)CCC(=O)OCCCCOc6no[n+]([O-])c6S(=O)(=O)c6ccccc6)C(C)(C)[C@@H]5CC[C@]43C)[C@@H]2C1`, the Activity (MCF7 [1]) is reported as “inactive”, the Activity (HeLa [2]) is reported as “inactive” and the Activity (HEK293 [3]) is reported as “inactive”. The Activity (MCF7 [4]) was “inactive”, the Activity (HepG2 [5]) was “Active” and the Activity [6] was 0%. The Activity (HepG2 [7]) was 2.6%, the Activity (Hep 3B2) was “Active” and the Activity [8] was 7.52%. The Activity (PC-3 [9]) was “inactive”, the Activity [10] was 61.18% and the Activity (PC-3 [11]) was “inactive”. The Activity (HeLa [12]) was “inactive”, the Activity (HEK293 [13]) was “inactive” and the Activity (HepG2 [14]) was 56.35%. The Activity (HepG2 [15]) was 10.96%, the Activity [16] was 100% and the Activity (HepG2 [17]) was 98.16%.
In the case of `CC1(C)CC[C@]2(C(=O)O)CC[C@]3(C)C(=CC[C@@H]4[C@@]5(C)CC[C@H](OC(=O)CCC(=O)OCc6c(-c7ccccc7)no[n+]6[O-])C(C)(C)[C@@H]5CC[C@]43C)[C@@H]2C1`, the Activity (MCF7 [1]) is reported as “inactive”, the Activity (HeLa [2]) is reported as “inactive” and the Activity (HEK293 [3]) is reported as “inactive”. The Activity (MCF7 [4]) was “inactive”, the Activity (HepG2 [5]) was “Active” and the Activity [6] was 0%. The Activity (HepG2 [7]) was 0%, the Activity (Hep 3B2) was “Active” and the Activity [8] was 0%. The Activity (PC-3 [9]) was “inactive”, the Activity [10] was 0% and the Activity (PC-3 [11]) was “inactive”. For the same compound, the Activity (HeLa [12]) was “inactive”, the Activity (HEK293 [13]) was “inactive” and the Activity (HepG2 [14]) was 0%. For the same compound, the Activity (HepG2 [15]) was 0%, the Activity [16] was 0% and the Activity (HepG2 [17]) was 0%.
For `CC1(C)CC[C@]2(C(=O)O)CC[C@]3(C)C(=CC[C@@H]4[C@@]5(C)CC[C@H](OC(=O)CCC(=O)OCCOCCOc6no[n+]([O-])c6S(=O)(=O)c6ccccc6)C(C)(C)[C@@H]5CC[C@]43C)[C@@H]2C1`, the Activity (MCF7 [1]) was “inactive”, the Activity (HeLa [2]) was “inactive” and the Activity (HEK293 [3]) was “inactive”. The Activity (MCF7 [4]) was “inactive”, the Activity (HepG2 [5]) was “Active” and the Activity [6] was 0%. For the same compound, the Activity (HepG2 [7]) was 2.7%, the Activity (Hep 3B2) was “Active” and the Activity [8] was 9.78%. For the same compound, the Activity (PC-3 [9]) was “inactive”, the Activity [10] was 56.43% and the Activity (PC-3 [11]) was “inactive”. For the same compound, the Activity (HeLa [12]) was “inactive”, the Activity (HEK293 [13]) was “inactive” and the Activity (HepG2 [14]) was 67.96%. For the same compound, the Activity (HepG2 [15]) was 17.32%, the Activity [16] was 88.65% and the Activity (HepG2 [17]) was 95.63%.
For `CC(CCOc1no[n+]([O-])c1S(=O)(=O)c1ccccc1)OC(=O)[C@]12CCC(C)(C)C[C@H]1C1=CC[C@@H]3[C@@]4(C)CC[C@H](OC(=O)C(F)(F)F)C(C)(C)[C@@H]4CC[C@@]3(C)[C@]1(C)CC2` (stereo not given in full), the Activity (MCF7 [1]) was “inactive”, the Activity (HeLa [2]) was “inactive” and the Activity (HEK293 [3]) was “inactive”. The Activity (MCF7 [4]) was “inactive”, the Activity (HepG2 [5]) was “Active” and the Activity [6] was 0%. For the same compound, the Activity (HepG2 [7]) was 0%, the Activity (Hep 3B2) was “Active” and the Activity [8] was 0%. The Activity (PC-3 [9]) was “inactive”, the Activity [10] was 0% and the Activity (PC-3 [11]) was “inactive”. For the same compound, the Activity (HeLa [12]) was “inactive”, the Activity (HEK293 [13]) was “inactive” and the Activity (HepG2 [14]) was 0%. For the same compound, the Activity (HepG2 [15]) was 0%, the Activity [16] was 0% and the Activity (HepG2 [17]) was 0%.
With `CC1(C)CC[C@]2(C(=O)O)CC[C@]3(C)C(=CC[C@@H]4[C@@]5(C)CC[C@H](OC(=O)CCC(=O)OCC#CCOc6no[n+]([O-])c6S(=O)(=O)c6ccccc6)C(C)(C)[C@@H]5CC[C@]43C)[C@@H]2C1` the Activity (MCF7 [1]) was “inactive”, the Activity (HeLa [2]) was “inactive” and the Activity (HEK293 [3]) was “inactive”. For the same compound, the Activity (MCF7 [4]) was “inactive”, the Activity (HepG2 [5]) was “Active” and the Activity [6] was 0%. The Activity (HepG2 [7]) was 0%, the Activity (Hep 3B2) was “Active” and the Activity [8] was 8.42%. The Activity (PC-3 [9]) was “inactive”, the Activity [10] was 19.61% and the Activity (PC-3 [11]) was “inactive”. For the same compound, the Activity (HeLa [12]) was “inactive”, the Activity (HEK293 [13]) was “inactive” and the Activity (HepG2 [14]) was 13.68%. For the same compound, the Activity (HepG2 [15]) was 10.07%, the Activity [16] was 72.51% and the Activity (HepG2 [17]) was 67.41%.
